What all share (assay type): in vivo
Assay [1] has as its system ryegrass, Italian (Italian ryegrass, Lolium multiflorum). Briefly: Test A preemergence. As to conditions: Lolium multiflorum, pre-emergence, 240 h; for pest or weed control at 125 g/ha: 125 g ai/ha, visual injury rating after approximately 10 d, read-out: Ryegrass, Italian plant response rating (0 to 100 scale, 0 is no effect, 100 is complete control); for pest or weed control at 500 g/ha: 500 g ai/ha, preemergence, visual injury rating about 10 d after treatment, read-out: Ryegrass, Italian plant response rating. The method in brief:
(§1)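 In a loam soil and sand blend, planted seeds got a preemergence directed soil spray, and young plants at the one- to two-leaf stage, 2–10 cm high, got a postemergence application; ~10 d greenhouse hold; injury rated visually, 0 = none, 100 = complete control.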

Assay [2] relates to rice (Oryra sativa). The experiment in a line: Test B flooded paddy test. As to conditions: Oryza sativa, Flood, 250 g ai/ha, read-out: Rice plant response rating. The method in brief: (§2)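 Greenhouse paddy pots with 2-leaf stage plants received compound by direct addition to floodwater 3 cm deep, kept at that level. Scored visually at 13–15 d versus controls (0 no effect; 100 complete control).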

For assay [3], the system named is sedge, umbrella (small-flower umbrella sedge, Cyperus difformis). Briefly: Test B flooded paddy test. As to conditions: Cyperus difformis, Flood, 250 g ai/ha, read-out: Sedge, Umbrella plant response rating. The method in brief: as §2
For assay [4], the system named is barnyardgrass (Echinochloa crus-galli). Briefly: Test B flooded paddy test. As to conditions: Echinochloa crus-galli, Flood, 250 g ai/ha, read-out: Barnyardgrass plant response rating. The method in brief: as §2
Assay [5] has as its system ducksalad (Heteranthera limosa). Briefly: Test B flooded paddy test. The following applies: Heteranthera limosa, Flood, 250 g ai/ha, read-out: Ducksalad plant response rating. The method in brief: as §2
Assay [6] relates to ragweed (common ragweed, Ambrosia elatior). Briefly: Test A postemergence. As to conditions: Ambrosia artemisiifolia, post-emergence, 240 h, Postemergence, read-out: Plant response rating, Ragweed; for pest or weed control at 125 g/ha: 125 g ai/ha, visual injury after approximately 10 d, 0 to 100 scale where 0 is no effect and 100 is complete control. The method in brief: as §1

Assay [7] deals with corn (Zea mays). Briefly: Test A postemergence. As to conditions: Zea mays, post-emergence, 240 h, Postemergence; for Corn plant response rating (crop injury, 0 = no effect, 100 = complete kill) at 125 g/ha: 125 g ai/ha, visual injury after approximately 10 d, 0 to 100 scale where 0 is no effect and 100 is complete control. The method in brief: as §1
In assay [8] the test system is Galium (catchweed bedstraw, Galium aparine). The experiment in a line: Test A postemergence. The following applies: Galium, post-emergence, 240 h, Postemergence, read-out: Plant response rating, Galium; for pest or weed control at 125 g/ha: 125 g ai/ha, visual injury after approximately 10 d, 0 to 100 scale where 0 is no effect and 100 is complete control. The method in brief:
as §1

Assay [9] concerns ryegrass, Italian (Italian ryegrass, Lolium multiflorum). Briefly: Test A postemergence. As to conditions: Lolium multiflorum, post-emergence, 240 h, Postemergence, read-out: Plant response rating, Ryegrass, Italian; for pest or weed control at 125 g/ha: 125 g ai/ha, visual injury after approximately 10 d, 0 to 100 scale where 0 is no effect and 100 is complete control. The method in brief:
as §1

Assay [10] relates to barnyardgrass (Echinochloa crus-galli). Briefly: Test A postemergence. The following applies: Echinochloa crus-galli, post-emergence, 240 h, Postemergence, read-out: Plant response rating, Barnyardgrass; for pest or weed control at 125 g/ha: 125 g ai/ha, visual injury after approximately 10 d, 0 to 100 scale where 0 is no effect and 100 is complete control. The method in brief:
as §1

Assay [11] deals with Kochia (Kochia scoparia). Briefly: Test A postemergence. As to conditions: Bassia scoparia, post-emergence, 240 h, Postemergence, read-out: Plant response rating, Kochia; for pest or weed control at 125 g/ha: 125 g ai/ha, visual injury after approximately 10 d, 0 to 100 scale where 0 is no effect and 100 is complete control. Summed up:
as §1

Assay [12] has as its system wheat (Triticum aestivum). Briefly: Test A postemergence. As to conditions: Triticum aestivum, post-emergence, 240 h, Postemergence, read-out: Plant response rating, Wheat; for plant injury at 125 g/ha: 125 g ai/ha, visual injury after approximately 10 d, 0 to 100 scale where 0 is no effect and 100 is complete control. Summed up:
as §1

The test system of assay [13] is pigweed (Amaranthus retroflexus). The experiment in a line: Test A postemergence. The following applies: Amaranthus retroflexus, post-emergence, 240 h, Postemergence, read-out: Plant response rating, Pigweed; for pest or weed control at 125 g/ha: 125 g ai/ha, visual injury after approximately 10 d, 0 to 100 scale where 0 is no effect and 100 is complete control. The method in brief: as §1

Assay [14] relates to giant foxtail (Setaria faberii). The experiment in a line: Test A postemergence. The following applies: Setaria faberi, post-emergence, 240 h, Postemergence, read-out: Plant response rating, Foxtail, Giant; for pest or weed control at 125 g/ha: 125 g ai/ha, visual injury after approximately 10 d, 0 to 100 scale where 0 is no effect and 100 is complete control. The method in brief:
as §1

Assay [15] has as its system blackgrass (Alopecurus myosuroides). The experiment in a line: Test A postemergence. As to conditions: Alopecurus myosuroides, post-emergence, 240 h, Postemergence, read-out: Plant response rating, Blackgrass; for pest or weed control at 125 g/ha: 125 g ai/ha, visual injury after approximately 10 d, 0 to 100 scale where 0 is no effect and 100 is complete control. The method in brief:
as §1

The mark [16] stands for this setting: scale of 0 to 100 where 0 is no effect and 100 is complete control.
Setting [17] is: 31 g ai/ha, visual injury after approx. 10 d, 0 to 100 scale, 0 no effect, 100 complete control.
Setting [18] is: 0 to 100 scale (0 no effect, 100 complete control).
[19] abbreviates: 0 to 100 scale where 0 is no effect and 100 is complete control.

Here are results for four molecules from patent publication US12077503B2, “Substituted cyclic amides and their use as herbicides” (FMC CORPORATION, priority 2015, dated 2024).

Read-outs that look alike come from different tables or passages of the source.

`CCOc1cc([C@H]2CN(C)C(=O)[C@@H]2C(=O)Nc2cccc(F)c2F)cc(C(F)(F)F)c1` [Compound 971]: the pest or weed control at 125 g/ha came to 80% in [1] (Preemergence); 0% in assay [6]; 40% in [8]; 50% in assay [9]; 80% in assay [10]; 40% in assay [11]. The pest or weed control at 125 g/ha in assay [13] amounted to 50%; in assay [14] it was 80%; in assay [15], 50%. The pest or weed control at 31 g/ha stood at 50% in assay [1] (Preemergence, 31 g ai/ha, 0 to 100 scale (0 no effect, 100 complete control), read-out: Plant response rating, Ryegrass, Italian); 0% in assay [6] (setting [17]); 20% in assay [8] (setting [17]); 20% in [9] (setting [17]); 50% in [10] (setting [17]); 20% in [11] (setting [17]). Also, the pest or weed control at 31 g/ha in [13] (setting [17]) worked out at 20%; in assay [14] (setting [17]), 80%; in assay [15] (setting [17]), 40%. For the same molecule, the pest or weed control at 250 g/ha in assay [2] (setting [16]) worked out at 45%; in assay [3] (setting [16]) it was 0%; in assay [4] (setting [16]), 60%; in assay [5] (setting [16]), 85%. Besides, the Corn plant response rating (crop injury, 0 = no effect, 100 = complete kill) at 125 g/ha in assay [7] was determined as 70%. The same molecule yielded a Corn plant response rating (crop injury, 0 = no effect, 100 = complete kill) at 31 g/ha in assay [7] (setting [17]) of 70%. Moreover, the plant injury at 125 g/ha in [12] was found to be 50%. Moreover, the plant injury at 31 g/ha in assay [12] (setting [17]) came to 30%.
For `CN1C[C@H](c2cc(F)cc(C(F)(F)F)c2)[C@@H](C(=O)Nc2ccc(F)c(F)c2F)C1=O` [Compound 993], the pest or weed control at 125 g/ha in [1] (Preemergence) came out at 80%; in assay [6], 0%; in assay [8], 60%; in [9], 50%; in assay [10], 90%; in assay [11], 20%. The pest or weed control at 125 g/ha in assay [13] turned out to be 30%; in [14] it was 90%; in assay [15] it was 70%. The pest or weed control at 500 g/ha in assay [1] (setting [18]) came out at 90%. The pest or weed control at 250 g/ha turned out to be 40% in assay [2] (setting [16]), 60% in assay [3] (setting [19]), 70% in assay [4] (setting [16]) and 85% in assay [5] (setting [16]). This molecule yielded a Corn plant response rating (crop injury, 0 = no effect, 100 = complete kill) at 125 g/ha in assay [7] of 80%. Further, the plant injury at 125 g/ha in assay [12] turned out to be 50%.
Consider `CN1CC[C@H](c2ccc(OC(F)(F)F)cc2)[C@@H](C(=O)Nc2ccccc2C(F)(F)F)C1=O` [Compound 998], for which the pest or weed control at 125 g/ha in assay [1] (Preemergence), in assay [6], in assay [8], in assay [9], in assay [10] and in assay [11] was 0% each time. Also, the pest or weed control at 125 g/ha in assay [13], in assay [14] and in [15] was 0% each time. Further, the pest or weed control at 500 g/ha in [1] (setting [18]) was 0%. Besides, the pest or weed control at 250 g/ha in assay [2] (setting [16]), in [3] (setting [19]), in assay [4] (setting [16]) and in [5] (setting [16]) was 0% throughout. In addition, in assay [7], the Corn plant response rating (crop injury, 0 = no effect, 100 = complete kill) at 125 g/ha worked out at 0%. Moreover, the plant injury at 125 g/ha in assay [12] turned out to be 0%.
Take `CN1CC[C@H](c2ccc(OC(F)(F)F)cc2)[C@@H](C(=O)Nc2cccc(F)c2F)C1=O` [Compound 999]: the pest or weed control at 125 g/ha in [1] (Preemergence) was determined as 0%; in assay [6], 0%; in assay [8] it was 0%; in assay [9], 0%; in assay [10], 100%; in assay [11], 40%. The pest or weed control at 125 g/ha in [13] amounted to 0%; in assay [14], 40%; in assay [15], 0%. Besides, in [1] (setting [18]), the pest or weed control at 500 g/ha is 50%. Also, the pest or weed control at 250 g/ha was found to be 0% in [2] (setting [19]), 0% in assay [3] (setting [19]), 0% in [4] (setting [19]) and 85% in assay [5] (setting [19]). In addition, the Corn plant response rating (crop injury, 0 = no effect, 100 = complete kill) at 125 g/ha in assay [7] is 0%. Moreover, in [12], the plant injury at 125 g/ha is 0%.
